Test results reported in US20210038607A1, “OXADIAZOLYLTHIOPHENE DERIVATIVES USEFUL AS HISTONE DEACETYLASE INHIBITORS” (Karus Therapeutics Limited, priority 2018, published 2021).

How the values were obtained:
Human HDAC2 = molecular target: T1, Human HDAC2 (Homo sapiens, UniProt Q92769); assay: HDAC2 biochemical assay, AMC-labeled peptide substrate; details: read-out: HDAC Isoform IC50 (nM) 2
T1 construct: full length with C-terminal GST-tag; GST (C); host or cells: baculovirus expression system
T1 sequence (Q92769 whole entry, canonical isoform): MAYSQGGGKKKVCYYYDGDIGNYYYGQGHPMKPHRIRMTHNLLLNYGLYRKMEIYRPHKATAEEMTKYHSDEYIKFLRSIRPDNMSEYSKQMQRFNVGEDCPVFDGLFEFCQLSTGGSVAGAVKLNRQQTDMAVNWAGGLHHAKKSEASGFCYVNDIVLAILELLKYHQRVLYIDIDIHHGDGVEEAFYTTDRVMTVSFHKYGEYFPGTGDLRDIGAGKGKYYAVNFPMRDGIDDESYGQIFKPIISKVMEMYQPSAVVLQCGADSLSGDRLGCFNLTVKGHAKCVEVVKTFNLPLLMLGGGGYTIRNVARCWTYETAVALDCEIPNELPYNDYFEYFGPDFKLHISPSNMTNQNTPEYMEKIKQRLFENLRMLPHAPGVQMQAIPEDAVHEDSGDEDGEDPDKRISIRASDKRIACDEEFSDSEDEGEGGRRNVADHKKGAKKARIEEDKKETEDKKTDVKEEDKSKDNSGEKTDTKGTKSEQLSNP
Summary of the method: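 Full-length human HDAC2 with C-terminal GST tag, baculovirus-expressed, at 0.07 ng/ul with 50 μM RHKK(Ac)AMC substrate in Tris-HCl pH8.0 buffer with BSA, 1% DMSO final. Incubated 1 hour at 30° C with compounds, then developer added; fluorescence read at 360/460 Ex/Em.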

[1] = molecular target: T2, Complex of human HDAC3 and human NCOR2 (Homo sapiens, UniProt O15379); assay: HDAC3 biochemical assay, AMC-labeled peptide substrate; details: read-out: HDAC Isoform IC50 (nM) 3
T2 construct: full length with C-terminal His tag, MW=49.7 kDa; His (C); host or cells: baculovirus expression system (co-expressed)
T2 sequence (O15379 whole entry, canonical isoform): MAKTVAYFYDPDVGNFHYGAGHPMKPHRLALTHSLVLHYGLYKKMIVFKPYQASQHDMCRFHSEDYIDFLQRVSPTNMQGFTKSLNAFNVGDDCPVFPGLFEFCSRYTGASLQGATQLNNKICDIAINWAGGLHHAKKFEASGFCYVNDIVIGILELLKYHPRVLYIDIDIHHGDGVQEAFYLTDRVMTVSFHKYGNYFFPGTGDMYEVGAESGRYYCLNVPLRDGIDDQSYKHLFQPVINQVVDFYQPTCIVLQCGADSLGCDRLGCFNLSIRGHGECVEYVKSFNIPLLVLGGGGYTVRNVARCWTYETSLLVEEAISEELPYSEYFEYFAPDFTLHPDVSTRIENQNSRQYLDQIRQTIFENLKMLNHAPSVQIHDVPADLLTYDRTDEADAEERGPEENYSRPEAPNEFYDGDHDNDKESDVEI
T2 sequence (Q9Y618 395-489 partner limits assumed): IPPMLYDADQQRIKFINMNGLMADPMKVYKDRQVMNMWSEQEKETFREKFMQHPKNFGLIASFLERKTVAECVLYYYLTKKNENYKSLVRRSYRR
Summary of the method: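 Two-stage fluorogenic read: compounds incubated 1 h at 30° C with 50 μM RHKK(Ac)AMC and 0.1 ng/ul HDAC3–NCOR2(395-489) complex (Tris pH8.0, NaCl, KCl, MgCl2, BSA, 1% DMSO). Developer digestion of deacetylated product gives signal at Ex 360/Em 460.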

Human HDAC4 = molecular target: T3, Human HDAC4 (Homo sapiens, UniProt P56524); assay: HDAC4 biochemical assay, class IIa-specific substrate; details: read-out: HDAC Isoform IC50 (nM) 4
T3 construct: amino acids 627-1085 with N-terminal GST tag; GST (N); host or cells: baculovirus expression system
T3 sequence (P56524 627-1084 limits assumed): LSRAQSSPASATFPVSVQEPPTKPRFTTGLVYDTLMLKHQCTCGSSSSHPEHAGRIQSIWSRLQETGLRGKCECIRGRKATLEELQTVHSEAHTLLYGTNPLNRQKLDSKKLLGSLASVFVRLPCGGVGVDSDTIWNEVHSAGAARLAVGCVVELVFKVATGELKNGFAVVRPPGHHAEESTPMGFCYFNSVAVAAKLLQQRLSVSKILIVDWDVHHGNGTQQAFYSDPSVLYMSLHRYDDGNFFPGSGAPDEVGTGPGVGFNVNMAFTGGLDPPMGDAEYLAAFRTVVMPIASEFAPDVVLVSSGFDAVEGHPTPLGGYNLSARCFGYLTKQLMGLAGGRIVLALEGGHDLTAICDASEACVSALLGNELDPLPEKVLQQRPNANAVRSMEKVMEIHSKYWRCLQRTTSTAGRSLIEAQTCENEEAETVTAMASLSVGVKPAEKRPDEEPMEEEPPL
Summary of the method: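 Two-step fluorogenic read-out: deacetylated BOC-Lys(trifluoroacetyl)-AMC (50 μM) was digested by developer and measured at Ex/Em 360/460. Deacetylation by 0.004 ng/ul HDAC4 (aa 627-1085, N-terminal GST) ran 30 min at room temperature, pH 8.0 Tris buffer, 1 mg/mL BSA, 1% DMSO.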

Human HDAC5 = molecular target: T4, Human HDAC5 (Homo sapiens, UniProt Q9UQL6); assay: HDAC5 biochemical assay, class IIa-specific substrate; details: read-out: HDAC Isoform IC50 (nM) 5
T4 construct: full length with C-terminal His tag, MW=51.1 kDa; His (C); host or cells: baculovirus expression system
T4 sequence (Q9UQL6 656-1122 limits assumed): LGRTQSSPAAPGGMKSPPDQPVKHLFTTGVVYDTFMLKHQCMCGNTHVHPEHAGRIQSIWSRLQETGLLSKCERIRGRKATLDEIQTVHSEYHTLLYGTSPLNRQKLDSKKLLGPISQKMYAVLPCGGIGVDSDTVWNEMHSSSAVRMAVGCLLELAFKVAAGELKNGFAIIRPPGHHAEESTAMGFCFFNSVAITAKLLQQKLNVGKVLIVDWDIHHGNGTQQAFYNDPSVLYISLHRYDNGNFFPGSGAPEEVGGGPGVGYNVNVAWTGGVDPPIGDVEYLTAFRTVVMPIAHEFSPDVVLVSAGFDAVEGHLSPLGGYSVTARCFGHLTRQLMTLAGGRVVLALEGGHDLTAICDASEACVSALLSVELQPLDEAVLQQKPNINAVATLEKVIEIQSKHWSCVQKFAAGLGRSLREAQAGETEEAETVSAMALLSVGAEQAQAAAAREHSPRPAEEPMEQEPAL
Summary of the method: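 Two-step fluorogenic read-out: deacetylated trifluoroacetyl-lysine AMC substrate (50 μM) digested by developer, measured at Ex/Em 360/460. Deacetylation step: 0.05 ng/ul His-tagged full-length baculoviral enzyme with compound, 30 min, room temperature, pH 8.0 Tris with 1 mg/mL BSA and 1% DMSO.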

Human HDAC8 = molecular target: T5, Human HDAC8 (Homo sapiens, UniProt Q9BY41); assay: HDAC8 biochemical assay, AMC-labeled peptide substrate; details: read-out: HDAC Isoform IC50 (nM) 8
T5 construct: full length with C-terminal His tag, MW=42.6 kDa; His (C); host or cells: baculovirus expression system
T5 sequence (Q9BY41 1-377): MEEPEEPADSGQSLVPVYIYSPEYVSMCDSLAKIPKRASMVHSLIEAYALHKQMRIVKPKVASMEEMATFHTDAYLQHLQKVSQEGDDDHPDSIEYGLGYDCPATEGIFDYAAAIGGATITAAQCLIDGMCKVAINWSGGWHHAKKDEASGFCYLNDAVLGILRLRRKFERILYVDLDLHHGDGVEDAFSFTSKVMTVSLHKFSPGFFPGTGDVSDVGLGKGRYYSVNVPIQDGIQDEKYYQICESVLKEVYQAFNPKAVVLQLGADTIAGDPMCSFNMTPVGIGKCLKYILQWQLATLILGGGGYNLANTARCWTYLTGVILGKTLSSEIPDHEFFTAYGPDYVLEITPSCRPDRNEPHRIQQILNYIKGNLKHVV
Summary of the method: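 Two-step fluorogenic readout: compounds and enzyme deacetylate 100 µM RHK(Ac)K(Ac)AMC for 2 h at 30° C (pH8.0 Tris buffer, BSA, 1% DMSO final), then developer releases AMC, read at 360/460 Ex/Em. Enzyme: 1 ng/ul full-length His-tagged human HDAC8 from baculovirus.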

Human HDAC9 = molecular target: T6, Human HDAC9 (Homo sapiens, UniProt Q9UKV0); assay: HDAC9 biochemical assay, class IIa-specific substrate; details: read-out: HDAC Isoform IC50 (nM) 9
T6 construct: amino acids 604-1066 with C-terminal His tag; His (C); host or cells: baculovirus expression system
T6 sequence (Q9UKV0 604-1066 isoform Q9UKV0-5): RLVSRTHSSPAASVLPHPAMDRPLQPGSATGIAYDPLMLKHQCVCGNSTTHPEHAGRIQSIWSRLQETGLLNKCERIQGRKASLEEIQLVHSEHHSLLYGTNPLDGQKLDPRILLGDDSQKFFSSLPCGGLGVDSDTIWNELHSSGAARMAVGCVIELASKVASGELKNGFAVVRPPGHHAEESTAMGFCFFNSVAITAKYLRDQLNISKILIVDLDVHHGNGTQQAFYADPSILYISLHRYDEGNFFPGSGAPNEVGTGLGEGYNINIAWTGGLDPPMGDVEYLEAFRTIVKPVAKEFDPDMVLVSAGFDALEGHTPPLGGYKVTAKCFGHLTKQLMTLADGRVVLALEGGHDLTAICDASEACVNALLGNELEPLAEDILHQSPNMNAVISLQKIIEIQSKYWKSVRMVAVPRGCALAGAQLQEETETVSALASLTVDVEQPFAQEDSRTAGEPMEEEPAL
Summary of the method: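 HDAC9 residues 604-1066 (C-terminal His tag, baculovirus-expressed) at 0.06 ng/ul with 50 μM class IIa substrate Boc-Lys(trifluoroacetyl)-AMC in Tris-HCl pH 8.0 buffer with BSA and 1% DMSO. 30 min at room temperature, then developer added; fluorescence read at 360/460 nm Ex/Em.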

SMILES | IC50 (Human HDAC2) | IC50 [1] | IC50 (Human HDAC4) | IC50 (Human HDAC5) | IC50 (Human HDAC8) | IC50 (Human HDAC9)
O=C(c1nccnc1N(Cc1ccc(-c2noc(C(F)(F)F)n2)s1)c1cnccn1)N1CCC1 [Example GP, 3-(Azetidine-1-carbonyl)-N-(pyrazin-2-yl)-N-({5-[5-(trifluoromethyl)-1,2,4-oxadiazol-3-yl]thiophen-2-yl}methyl)pyrazin-2-amine] | > 10000 nM | > 10000 nM | ≤ 10000 nM | ≤ 10000 nM | ≤ 10000 nM | ≤ 10000 nM
Nc1cnnc(N(Cc2ccc(-c3noc(C(F)(F)F)n3)s2)c2cnccn2)c1 [Example FL, N3-(Pyrazin-2-yl)-N3-({5-[5-(trifluoromethyl)-1,2,4-oxadiazol-3-yl]thiophen-2-yl}methyl)pyridazine-3,5-diamine] | > 10000 nM | > 10000 nM | ≤ 500 nM | ≤ 500 nM | ≤ 10000 nM | ≤ 1000 nM
C[C@H]1CCCN1C(=O)c1cnnc(N(Cc2ccc(-c3noc(C(F)(F)F)n3)s2)c2cnccn2)c1 [Example GY, 5-[(2S)-2-Methylpyrrolidine-1-carbonyl]-N-(pyrazin-2-yl)-N-({5-[5-(trifluoromethyl)-1,2,4-oxadiazol-3-yl]thiophen-2-yl}methyl)pyridazin-3-amine] | > 10000 nM | > 10000 nM | ≤ 10000 nM | ≤ 1000 nM | ≤ 10000 nM | ≤ 10000 nM
O=C(c1cnnc(N(Cc2ccc(-c3noc(C(F)(F)F)n3)s2)c2cnccn2)c1)N1CC2CCC(C1)O2 [Example GA, 5-{8-Oxa-3-azabicyclo[3.2.1]octane-3-carbonyl}-N-(pyrazin-2-yl)-N-({5-[5-(trifluoromethyl)-1,2,4-oxadiazol-3-yl]thiophen-2-yl}methyl)pyridazin-3-amine] | > 10000 nM | > 10000 nM | ≤ 10000 nM | ≤ 1000 nM | ≤ 10000 nM | ≤ 10000 nM
FC(F)(F)c1cnc(N(Cc2ccc(-c3noc(C(F)(F)F)n3)s2)c2cnccn2)cn1 [Example BK, N-(Pyrazin-2-yl)-5-(trifluoromethyl)-N-({5-[5-(trifluoromethyl)-1,2,4-oxadiazol-3-yl]thiophen-2-yl}methyl)pyrazin-2-amine] | > 10000 nM | > 10000 nM | ≤ 10000 nM | ≤ 10000 nM | ≤ 10000 nM | ≤ 10000 nM
O=C(c1ccc(N(Cc2ccc(-c3noc(C(F)(F)F)n3)s2)c2cnccn2)nn1)N1CCC12COC2 [Example FH, 6-{6-Oxa-1-azaspiro[3.3]heptane-1-carbonyl}-N-(pyrazin-2-yl)-N-({5-[5-(trifluoromethyl)-1,2,4-oxadiazol-3-yl]thiophen-2-yl}methyl)pyridazin-3-amine] | > 10000 nM | ≤ 10000 nM | ≤ 500 nM | ≤ 500 nM | ≤ 10000 nM | ≤ 1000 nM
O=C(c1ccc(N(Cc2ccc(-c3noc(C(F)(F)F)n3)s2)c2cnccn2)nn1)N1CCC1 [Example FF, 6-(Azetidine-1-carbonyl)-N-(pyrazin-2-yl)-N-({5-[5-(trifluoromethyl)-1,2,4-oxadiazol-3-yl]thiophen-2-yl}methyl)pyridazin-3-amine] | > 10000 nM | ≤ 10000 nM | ≤ 500 nM | ≤ 500 nM | ≤ 10000 nM | ≤ 1000 nM
Cc1cncc(N(Cc2ccc(-c3noc(C(F)(F)F)n3)s2)c2cnccn2)n1 [Example BP, 6-Methyl-N-(pyrazin-2-yl)-N-({5-[5-(trifluoromethyl)-1,2,4-oxadiazol-3-yl]thiophen-2-yl}methyl)pyrazin-2-amine] | > 10000 nM | > 10000 nM | ≤ 1000 nM | ≤ 500 nM | ≤ 10000 nM | ≤ 10000 nM
O=C(c1cnnc(N(Cc2ccc(-c3noc(C(F)(F)F)n3)s2)c2cnccn2)c1)N1CCC1 [Example FS, 5-(Azetidine-1-carbonyl)-N-(pyrazin-2-yl)-N-({5-[5-(trifluoromethyl)-1,2,4-oxadiazol-3-yl]thiophen-2-yl}methyl)pyridazin-3-amine] | > 10000 nM | > 10000 nM | ≤ 10000 nM | ≤ 1000 nM | ≤ 10000 nM | ≤ 10000 nM
CNC(=O)c1cnnc(N(Cc2ccc(-c3noc(C(F)(F)F)n3)s2)c2cnccn2)c1 [Example DY, N-Methyl-6-[(pyrazin-2-yl)({5-[5-(trifluoromethyl)-1,2,4-oxadiazol-3-yl]thiophen-2-yl}methyl)amino]pyridazine-4-carboxamide] | > 10000 nM | > 10000 nM | ≤ 1000 nM | ≤ 1000 nM | ≤ 10000 nM | ≤ 10000 nM

Results, then the compound that gave them:

IC50 (Human HDAC2) | IC50 [1] | IC50 (Human HDAC4) | IC50 (Human HDAC5) | IC50 (Human HDAC8) | IC50 (Human HDAC9) | SMILES
> 10000 nM | ≤ 10000 nM | ≤ 10000 nM | ≤ 1000 nM | ≤ 10000 nM | ≤ 10000 nM | O=C(c1cnnc(N(Cc2ccc(-c3noc(C(F)(F)F)n3)s2)c2cnccn2)c1)N1C[C@H]2C[C@@H]1CO2 [Example FW, 5-[(1R,4R)-2-Oxa-5-azabicyclo[2.2.1]heptane-5-carbonyl]-N-(pyrazin-2-yl)-N-({5-[5-(trifluoromethyl)-1,2,4-oxadiazol-3-yl]thiophen-2-yl}methyl)pyridazin-3-amine]
> 10000 nM | > 10000 nM | ≤ 10000 nM | ≤ 1000 nM | ≤ 10000 nM | ≤ 10000 nM | O=C(c1cnnc(N(Cc2ccc(-c3noc(C(F)(F)F)n3)s2)c2cnccn2)c1)N1C[C@@H]2C[C@H]1CO2 [Example FV, 5-[(1S,4S)-2-Oxa-5-azabicyclo[2.2.1]heptane-5-carbonyl]-N-(pyrazin-2-yl)-N-({5-[5-(trifluoromethyl)-1,2,4-oxadiazol-3-yl]thiophen-2-yl}methyl)pyridazin-3-amine]
> 10000 nM | > 10000 nM | ≤ 1000 nM | ≤ 500 nM | ≤ 10000 nM | ≤ 10000 nM | O=C(c1cncc(N(Cc2ccc(-c3noc(C(F)(F)F)n3)s2)c2cnccn2)c1)N1CCOCC1 [Example GR, N-[5-(Morpholine-4-carbonyl)pyridin-3-yl]-N-({5-[5-(trifluoromethyl)-1,2,4-oxadiazol-3-yl]thiophen-2-yl}methyl)pyrazin-2-amine]
> 10000 nM | > 10000 nM | ≤ 10000 nM | ≤ 10000 nM | ≤ 10000 nM | ≤ 10000 nM | COc1cnc(N(Cc2ccc(-c3noc(C(F)(F)F)n3)s2)c2cnccn2)cn1 [Example BI, 5-Methoxy-N-(pyrazin-2-yl)-N-({5-[5-(trifluoromethyl)-1,2,4-oxadiazol-3-yl]thiophen-2-yl}methyl)pyrazin-2-amine]
> 10000 nM | > 10000 nM | ≤ 1000 nM | ≤ 1000 nM | ≤ 10000 nM | ≤ 10000 nM | Cc1cnnc(N(Cc2ccc(-c3noc(C(F)(F)F)n3)s2)c2cnccn2)c1 [Example GN, 5-Methyl-N-(pyrazin-2-yl)-N-({5-[5-(trifluoromethyl)-1,2,4-oxadiazol-3-yl]thiophen-2-yl}methyl)pyridazin-3-amine]
